Results as given in publication PMC6979384, “Characterization of the plant homeodomain (PHD) reader family for their histone tail interactions” (Epigenetics & Chromatin, 2020).

Experiments:
Experiment in all cases: Histone peptide microarray
Format in all cases: binding, human
Conditions in all cases: sheet "Array Heatmap"; GST-tagged reader; histone peptide array, total n = 4
[1] = test system: AIRE (PP)
Procedure, shortened: (§1)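 Each reader, produced as a GST fusion and purified, was tested at 0.5 μM on synthetic histone peptides (293 in total) carrying single or combinatorial marks. Intensities averaged over four replicates.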

[2] = test system: BAZ2B
Procedure, shortened: as §1

[3] = test system: BPTF (PB)
Procedure, shortened: as §1

[4] = test system: CHD4 (PPCC)
Procedure, shortened: as §1

[5] = test system: CHD5 (PCC)
Procedure, shortened: as §1

[6] = test system: CHD5 (PPCC)
Procedure, shortened: as §1

[7] = test system: DIDO1
Procedure, shortened: as §1

[8] = test system: DPF2 (PPC2W2)
Procedure, shortened: as §1

[9] = test system: ING1
Procedure, shortened: as §1

[10] = test system: ING2
Procedure, shortened: as §1

[11] = test system: ING3
Procedure, shortened: as §1

[12] = test system: ING4
Procedure, shortened: as §1

[13] = test system: ING5
Procedure, shortened: as §1

[14] = test system: KDM4C (TTP)
Procedure, shortened: as §1

[15] = test system: KDM5A (1)
Procedure, shortened: as §1

[16] = test system: KDM5A (3)
Procedure, shortened: as §1

[17] = test system: KDM5B (1)
Procedure, shortened: as §1

[18] = test system: KDM5B (3)
Procedure, shortened: as §1

[19] = test system: KDM7A
Procedure, shortened: as §1

[20] = test system: MLL5
Procedure, shortened: as §1

[21] = test system: MORC3 (CW)
Procedure, shortened: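 GST-tagged PHD readers, 0.5 μM, probed on a microarray of 293 synthetic histone peptides carrying single or combinatorial PTMs (optimized Petell protocol). Signals are averaged over 4 replicates and expressed as relative binding.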

[22] = test system: PHF13
Procedure, shortened: as §1

[23] = test system: PHF21A
Procedure, shortened: as §1

[24] = test system: PHF23
Procedure, shortened: as §1

[25] = test system: PHF2
Procedure, shortened: as §1

[26] = test system: PHF8
Procedure, shortened: as §1

[27] = test system: PHRF1 (RP)
Procedure, shortened: as §1

[28] = test system: RAG2
Procedure, shortened: as §1

[29] = test system: SP140L
Procedure, shortened: as §1

[30] = test system: TAF3
Procedure, shortened: as §1

[31] = test system: TRIM66 (PB)
Procedure, shortened: as §1

“H3 (74-84): H3 74-84 (IAQDFKTDLRF; UniProt P68431 75-85, looked up, fragment)” was tested, and the “Array Heatmap signal, AIRE (PP)” value [1] was 0.5836, the “Array Heatmap signal, BAZ2B” value [2] was 0.5314 and the “Array Heatmap signal, BPTF (PB)” value [3] was 0.3631. For the same substance, the “Array Heatmap signal, CHD4 (PPCC)” value [4] was 0.6103, the “Array Heatmap signal, CHD5 (PCC)” value [5] was 0.8536 and the “Array Heatmap signal, CHD5 (PPCC)” value [6] was 0.6043. For the same substance, the “Array Heatmap signal, DIDO1” value [7] was 0.6796, the “Array Heatmap signal, DPF2 (PPC2W2)” value [8] was 0.6874 and the “Array Heatmap signal, ING1” value [9] was 0.527. For the same substance, the “Array Heatmap signal, ING2” value [10] was 0.5988, the “Array Heatmap signal, ING3” value [11] was 0.4892 and the “Array Heatmap signal, ING4” value [12] was 0.5059. For the same substance, the “Array Heatmap signal, ING5” value [13] was 0.3977, the “Array Heatmap signal, KDM4C (TTP)” value [14] was 0.5485 and the “Array Heatmap signal, KDM5A (1)” value [15] was 0.5057. The “Array Heatmap signal, KDM5A (3)” value [16] was 0.4265, the “Array Heatmap signal, KDM5B (1)” value [17] was 0.6254 and the “Array Heatmap signal, KDM5B (3)” value [18] was 0.5142. The “Array Heatmap signal, KDM7A” value [19] was 0.4511, the “Array Heatmap signal, MLL5” value [20] was 0.5674 and the “Array Heatmap signal, MORC3 (CW)” value [21] was 0.3965. The “Array Heatmap signal, PHF13” value [22] was 0.6585, the “Array Heatmap signal, PHF21A” value [23] was 0.5055 and the “Array Heatmap signal, PHF23” value [24] was 0.5211. The “Array Heatmap signal, PHF2” value [25] was 0.4839, the “Array Heatmap signal, PHF8” value [26] was 0.3649 and the “Array Heatmap signal, PHRF1 (RP)” value [27] was 0.4358. For the same substance, the “Array Heatmap signal, RAG2” value [28] was 0.2597, the “Array Heatmap signal, SP140L” value [29] was 0.3639 and the “Array Heatmap signal, TAF3” value [30] was 0.2746. For the same substance, the “Array Heatmap signal, TRIM66 (PB)” value [31] was 0.6388.
